These compounds were tested against recombinant Mcl-1 (residues 172-327) (Homo sapiens (Human), UniProt Q07820) (assay: Fluorescence polarization anisotropy competition assay (FITC-Bak or FITC-Bim BH3 peptide) with Mcl-1). Settings: Table 2; Ki bins given in nM; FITC-Bak or FITC-Bim peptide competition; Ki converted from IC50; read-out: Ki for Inhibition of Mcl-1.
Format: binding

Sequence of recombinant Mcl-1 (residues 172-327) (Q07820 172-327): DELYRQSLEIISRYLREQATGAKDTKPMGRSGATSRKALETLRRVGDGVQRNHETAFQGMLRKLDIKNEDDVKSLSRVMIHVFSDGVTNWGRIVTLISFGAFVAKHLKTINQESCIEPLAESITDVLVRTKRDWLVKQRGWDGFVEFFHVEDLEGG

| Ki [nM] | Structure (SMILES) |
| --- | --- |
| < 50 | Cc1cc(OCCCc2c(C(=O)N(C)c3cccc(C(=O)O)c3)[nH]c3c(-c4c(C)nn(C)c4C)c(Cl)ccc23)cc(C)c1Cl [I-187, 3-(6-chloro-3-(3-(4-chloro-3,5-dimethylphenoxy)propyl)-N-methyl-7-(1,3,5-trimethyl-1H-pyrazol-4-yl)-1H-indole-2-carboxamido)benzoic acid] |
| < 50 | Cc1cc(OCCCc2c3n(c4c(-c5c(C)nn(C)c5C)c(Cl)ccc24)CCC(C)N(Cc2ccc(C(=O)O)cn2)C3=O)cc(C)c1Cl (stereo not drawn) [I-124, 6-((8-chloro-11-(3-(4-chloro-3,5-dimethylphenoxy)propyl)-3-methyl-1-oxo-7-(1,3,5-trimethyl-1H-pyrazol-4-yl)-4,5-dihydro-1H-[1,4]diazepino[1,2-a]indol-2(3H)-yl)methyl)nicotinic acid] |
| < 50 | Cc1cc(OCCCc2c(C(=O)N[C@H]3CC[C@@H](C(=O)O)CC3)[nH]c3c(-c4c(C)nn(C)c4C)c(Cl)ccc23)cc(C)c1Cl [I-332, (1s,4s)-4-(6-chloro-3-(3-(4-chloro-3,5-dimethylphenoxy)propyl)-7-(1,3,5-trimethyl-1H-pyrazol-4-yl)-1H-indole-2-carboxamido)cyclohexane-1-carboxylic acid] |
| < 50 | Cc1cc(OCCCc2c3n(c4c(-c5c(C)nn(C)c5C)c(Cl)ccc24)CCCN(c2cc(CO)cc(C(=O)O)c2)C3=O)cc(C)c1Cl [I-224, 3-(8-chloro-11-(3-(4-chloro-3,5-dimethylphenoxy)propyl)-1-oxo-7-(1,3,5-trimethyl-1H-pyrazol-4-yl)-4,5-dihydro-1H-[1,4]diazepino[1,2-a]indol-2(3H)-yl)-5-(hydroxymethyl)benzoic acid] |
| < 50 | Cc1cc(OCCCc2c3n(c4c(-c5c(C)nn(C)c5C)c(Cl)ccc24)CCCN(c2ccc(C(=O)O)c(F)c2)C3=O)cc(C)c1Cl [I-94, 4-(8-chloro-11-(3-(4-chloro-3,5-dimethylphenoxy)propyl)-1-oxo-7-(1,3,5-trimethyl-1H-pyrazol-4-yl)-4,5-dihydro-1H-[1,4]diazepino[1,2-a]indol-2(3H)-yl)-2-fluorobenzoic acid] |
| < 50 | Cc1cc(OCCCc2c3n(c4c(-c5c(C)nn(C)c5C)c(Cl)ccc24)CCC(C)N(Cc2cccc(C(=O)O)c2)C3=O)cc(C)c1Cl (stereo not drawn) [I-125, 3-((8-chloro-11-(3-(4-chloro-3,5-dimethylphenoxy)propyl)-3-methyl-1-oxo-7-(1,3,5-trimethyl-1H-pyrazol-4-yl)-4,5-dihydro-1H-[1,4]diazepino[1,2-a]indol-2(3H)-yl)methyl)benzoic acid] |

Second part, the compound before the results:

| Structure (SMILES) | Ki [nM] |
| --- | --- |
| Cc1cc(OCCCc2c3n(c4c(-c5c(C)nn(C)c5C)c(Cl)ccc24)CCCN(Cc2cc(NCCC(C)C)cc(C(=O)O)c2)C3=O)cc(C)c1Cl [I-328, 3-((8-chloro-11-(3-(4-chloro-3,5-dimethylphenoxy)propyl)-1-oxo-7-(1,3,5-trimethyl-1H-pyrazol-4-yl)-4,5-dihydro-1H-[1,4]diazepino[1,2-a]indol-2(3H)-yl)methyl)-5-(isopentylamino)benzoic acid] | < 50 |
| Cc1cc(OCCCc2c3n(c4c(-c5c(C)nn(C)c5C)c(Cl)ccc24)CCCN(c2cc(C(=O)O)c4cnn(C)c4c2)C3=O)cc(C)c1Cl [I-367, 6-(8-chloro-11-(3-(4-chloro-3,5-dimethylphenoxy)propyl)-1-oxo-7-(1,3,5-trimethyl-1H-pyrazol-4-yl)-4,5-dihydro-1H-[1,4]diazepino[1,2-a]indol-2(3H)-yl)-1-methyl-1H-indazole-4-carboxylic acid] | < 50 |
| Cc1cc(OCCCc2c(C(=O)Nc3ccc(C(=O)NS(=O)(=O)c4ccc([N+](=O)[O-])cc4)cc3)[nH]c3c(-c4cccnc4C)cccc23)cc(C)c1Cl [I-69, 3-(3-(4-chloro-3,5-dimethylphenoxy)propyl)-7-(2-methylpyridin-3-yl)-N-(4-(((4-nitrophenyl)sulfonyl)carbamoyl)phenyl)-1H-indole-2-carboxamide] | 101 to 299 |
| Cc1cc(OCCCc2c(C(=O)NCc3ccc(C(=O)NCc4ccccc4C(F)(F)F)o3)[nH]c3ccccc23)cc(C)c1Cl [I-58, 3-(3-(4-chloro-3,5-dimethylphenoxy)propyl)-N-((5-((2-(trifluoromethyl)benzyl)carbamoyl)furan-2-yl)methyl)-1H-indole-2-carboxamide] | 101 to 299 |
| Cc1cc(OCCCc2c3n(c4c(-c5c(C)nn(C)c5C)c(Cl)ccc24)CCCN(C[C@H]2CC[C@H](C(=O)O)CC2)C3=O)cc(C)c1Cl [I-371, (1r,4r)-4-((8-chloro-11-(3-(4-chloro-3,5-dimethylphenoxy)propyl)-1-oxo-7-(1,3,5-trimethyl-1H-pyrazol-4-yl)-4,5-dihydro-1H-[1,4]diazepino[1,2-a]indol-2(3H)-yl)methyl)cyclohexane-1-carboxylic acid] | < 50 |
| Cc1cc(OCCCc2c3n(c4c(-c5c(C)nn(C)c5C)c(Cl)ccc24)CCCN(c2csc(C(=O)O)n2)C3=O)cc(C)c1Cl [I-360, 4-(8-chloro-11-(3-(4-chloro-3,5-dimethylphenoxy)propyl)-1-oxo-7-(1,3,5-trimethyl-1H-pyrazol-4-yl)-4,5-dihydro-1H-[1,4]diazepino[1,2-a]indol-2(3H)-yl)thiazole-2-carboxylic acid] | < 50 |
| Cc1cnccc1-c1cc(C(=O)O)cc(N2CCCn3c(c(CCCOc4cc(C)c(Cl)c(C)c4)c4ccc(Cl)c(-c5c(C)nn(C)c5C)c43)C2=O)c1 [I-233, 3-(8-chloro-11-(3-(4-chloro-3,5-dimethylphenoxy)propyl)-1-oxo-7-(1,3,5-trimethyl-1H-pyrazol-4-yl)-4,5-dihydro-1H-[1,4]diazepino[1,2-a]indol-2(3H)-yl)-5-(3-methylpyridin-4-yl)benzoic acid] | < 50 |
| Cc1cc(OCCCc2c(C(=O)NCc3cccc(C(=O)NS(=O)(=O)c4ccc([N+](=O)[O-])cc4)c3)[nH]c3c(-c4c(C)n[nH]c4C)cccc23)cc(C)c1Cl [I-27, 3-(3-(4-chloro-3,5-dimethylphenoxy)propyl)-7-(3,5-dimethyl-1H-pyrazol-4-yl)-N-(3-(((4-nitrophenyl)sulfonyl)carbamoyl)benzyl)-1H-indole-2-carboxamide] | < 50 |
| Cc1cc(OCCCc2c3n(c4c(-c5c(C)nn(C)c5C)c(Cl)ccc24)CCCN(c2cccc4c2ccn4C)C3=O)cc(C)c1Cl [I-247, 8-chloro-1-(3-(4-chloro-3,5-dimethylphenoxy)propyl)-2-(1-methyl-1H-indol-4-yl)-7-(1,3,5-trimethyl-1H-pyrazol-4-yl)-2,3,4,5-tetrahydro-1H-[1,4]diazepino[1,2-a]indol-1-one] | < 50 |

Same assay, conditions: Table 2; Ki bins given in μM; FITC-Bak or FITC-Bim peptide competition; Ki converted from IC50; read-out: Ki for Inhibition of Mcl-1

| Structure (SMILES) | Ki [nM] |
| --- | --- |
| Cc1cc(OCCCc2c(C(=O)NCc3ccc(N4CCc5ccccc5C4)nc3)[nH]c3c(-c4c(C)nn(C)c4C)cccc23)cc(C)c1Cl [I-261, 3-(3-(4-chloro-3,5-dimethylphenoxy)propyl)-N-((6-(3,4-dihydroisoquinolin-2 (1H)-yl)pyridin-3-yl)methyl)-7-(1,3,5-trimethyl-1H-pyrazol-4-yl)-1H-indole-2-carboxamide] | 1000 to 9990 |
| Cc1cc(OCCCc2c(C(=O)NCc3cc(C(=O)NCc4ccccc4)c(C)o3)[nH]c3c(-c4c(C)nn(C)c4C)cccc23)cc(C)c1Cl [I-275, N-((4-(benzylcarbamoyl)-5-methylfuran-2-yl)methyl)-3-(3-(4-chloro-3,5-dimethylphenoxy)propyl)-7-(1,3,5-trimethyl-1H-pyrazol-4-yl)-1H-indole-2-carboxamide] | 1000 to 9990 |
| Cc1cc(OCCCc2c(C(=O)NCc3ccccc3)[nH]c3ccccc23)cc(C)c1Cl [I-41, N-benzyl-3-(3-(4-chloro-3,5-dimethylphenoxy)propyl)-1H-indole-2-carboxamide] | 10000 to 50000 |

— US10533010B2, “Substituted indole Mcl-1 inhibitors” (Vanderbilt University, priority 2014, dated 2020)
